IC50 data for 32 compounds are collected here from patent US10294272B2, “Peptides with antagonistic activities against natural CXCR4” (Pharis Biotec GmbH, priority 2013, dated 2019).

Positions of bridges follow the written chain, without caps; N, C: chain ends. Residues, ends and D or L forms follow the SMILES beside them. Chains are numbered I, II in the order given. No end group written: not given here.

The assay has as its system X4 tropic HIV-1 NL4-3. Particulars: blocking X4 tropic HIV-1 NL4-3 infection. Here is the method:
Antiviral screening was performed using the X4 HIV-1 NL4-3 molecular clone.
HIV-1, HIV-2 and SIV molecular clones differing in coreceptor tropism were generated by transient transfection of 293T cells with proviral DNA by the calcium phosphate method (CalPhos™ Mammalian Transfection Kit, Clon-tech). After overnight incubation, the transfection mixture was replaced by DMEM medium supplemented with 10% FCS, and virus stocks were harvested 48 hrs post-transfection. Subsequently, the culture supernatant was centrifuged for 5 min at 3000 rpm to remove cell debris. The resulting virus stock was quantified by p24 (HIV) or p27 (SIV) antigen ELISA. Virus stocks were either used immediately or stored in aliquots at −80° C.
TZM-bl reporter cells containing the LacZ reporter gene under the control of the HIV-1 promoter were seeded in 96-well F-bottom microtiter plates (Greiner Bio-One). On the following day, the cells were preincubated with various dilutions of the peptide of SEQ ID NO 16 or its derivatives for 1 hour and subsequently infected with HIV-1, HIV-2, and SIV. Infection rates were determined after 2 days using the one-step Tropix Gal-Screen Kit, as recommended by the manufacturer.

What is called IC50 is the point on the concentration scale where inhibition reaches its midpoint. A high value points to a need for much substance. As for `CC[C@H](C)[C@H](N)C(=O)N[C@H](C(=O)N[C@@H](CCCNC(=N)N)C(=O)N[C@@H](Cc1c[nH]c2ccccc12)C(=O)N[C@@H](CO)C(=O)N[C@@H](CCCCN)C(=O)N[C@@H](CCCCN)C(=O)N[C@H](C(=O)N1CCC[C@H]1C(=O)N[C@@H](CCC(N)=O)C(=O)N[C@@H](CSSC[C@H](NC(=O)[C@H](CCC(N)=O)NC(=O)[C@@H]1CCCN1C(=O)[C@@H](NC(=O)[C@H](CCCCN)NC(=O)[C@H](CCCCN)NC(=O)[C@H](CO)NC(=O)[C@H](Cc1c[nH]c2ccccc12)NC(=O)[C@H](CCCNC(=N)N)NC(=O)[C@@H](NC(=O)[C@@H](N)[C@@H](C)CC)C(C)C)C(C)C)C(=O)N[C@@H](CO)C(=O)O)C(=O)N[C@@H](CO)C(=O)O)C(C)C)C(C)C` [408I-419 WSC01 x2, (IVRWSKKVPQCS)2] (I: H-IVRWSKKVPQCS-OH / II: H-IVRWSKKVPQCS-OH; disulfide I:11-II:11; N-terminus and C-terminus assumed), the IC50 was determined as 180 nM.
For the compound “IVRWSKKVCQVS [408I-419 WSC03, IVRWSKKVCQVS]”, half-maximal inhibition (IC50) was put at 1510 nM.
On to “IVRWSKKVPQCS [408I-419 WSC01, IVRWSKKVPQCS]”, for which the IC50 came out at 870 nM. Compared with the last compound, the IC50 is about 1.7-fold lower.
Regarding “IVRWTKKVPQVC [408I-419 WC01, IVRWTKKVPQVC]”, the midpoint of inhibition, the IC50, lay at 1650 nM.
Turning to “IVRWTKKVPQVS [408I-419 Y411W, IVRWTKKVPQVS]”, the IC50 worked out at 1540 nM.
For “LVRYTKKVPQV [Derivative 408-418, LVRYTKKVPQV]”, the concentration for half-maximal inhibition (IC50) turned out to be 26800 nM.
“IVRWSKKVPCVS [408I-419 WSC02, IVRWSKKVPCVS]” returned an IC50 of 310 nM.
On to “IVHYTKKVPQVS [408I-419 R410H, IVHYTKKVPQVS]”, for which the IC50 was more than 100000 nM.
“IVRYTKCVPQVS [408I-419 K414C, IVRYTKCVPQVS]” yielded an IC50 of 5870 nM.
The compound LVRYAKKV [408-415-T412A, LVRYAKKV] yielded a half-inhibitory concentration (IC50) of 11200 nM. This IC50 is about 1.9-fold higher than that of the compound before.
“LVRYTKKVPQVST [Derivative 408-420, LVRYTKKVPQVST]” displayed a concentration for half-maximal inhibition (IC50) of 15300 nM.
With “LLVRYTKKVPQVS [Derivative 407-419, LLVRYTKKVPQVS]”, half-maximal inhibition (IC50) was put at 11100 nM.
In the case of `CC[C@H](C)[C@H](N)C(=O)N[C@H](C(=O)N[C@@H](CCCNC(=N)N)C(=O)N[C@@H](Cc1ccc(O)cc1)C(=O)N[C@H](C(=O)N[C@@H](CCCCN)C(=O)N[C@@H](CSSC[C@H](NC(=O)[C@H](CCCCN)NC(=O)[C@@H](NC(=O)[C@H](Cc1ccc(O)cc1)NC(=O)[C@H](CCCNC(=N)N)NC(=O)[C@@H](NC(=O)[C@@H](N)[C@@H](C)CC)C(C)C)[C@@H](C)O)C(=O)N[C@H](C(=O)N1CCC[C@H]1C(=O)N[C@@H](CCC(N)=O)C(=O)N[C@H](C(=O)N[C@@H](CO)C(=O)O)C(C)C)C(C)C)C(=O)N[C@H](C(=O)N1CCC[C@H]1C(=O)N[C@@H](CCC(N)=O)C(=O)N[C@H](C(=O)N[C@@H](CO)C(=O)O)C(C)C)C(C)C)[C@@H](C)O)C(C)C` [408I-419 K414C x2, (IVRYTKCVPQVS)2] (I: H-IVRYTKCVPQVS-OH / II: H-IVRYTKCVPQVS-OH; disulfide I:7-II:7; N-terminus and C-terminus assumed) it was 1050 nM.
`CC[C@H](C)[C@H](N)C(=O)N[C@H](C(=O)N[C@@H](CCCNC(=N)N)C(=O)N[C@@H](Cc1c[nH]c2ccccc12)C(=O)N[C@H](C(=O)N[C@@H](CCCCN)C(=O)N[C@@H](CCCCN)C(=O)N[C@H](C(=O)N1CCC[C@H]1C(=O)N[C@@H](CCC(N)=O)C(=O)N[C@H](C(=O)N[C@@H](CSSC[C@H](NC(=O)[C@@H](NC(=O)[C@H](CCC(N)=O)NC(=O)[C@@H]1CCCN1C(=O)[C@@H](NC(=O)[C@H](CCCCN)NC(=O)[C@H](CCCCN)NC(=O)[C@@H](NC(=O)[C@H](Cc1c[nH]c2ccccc12)NC(=O)[C@H](CCCNC(=N)N)NC(=O)[C@@H](NC(=O)[C@@H](N)[C@@H](C)CC)C(C)C)[C@@H](C)O)C(C)C)C(C)C)C(=O)O)C(=O)O)C(C)C)C(C)C)[C@@H](C)O)C(C)C` [408I-419 WC01_x2, (IVRWTKKVPQVC)2] (I: H-IVRWTKKVPQVC-OH / II: H-IVRWTKKVPQVC-OH; disulfide I:12-II:12; N-terminus and C-terminus assumed) gave an IC50 of 400 nM. Against the preceding compound, the IC50 is about 2.6-fold lower.
In the case of “IVRYTKKVPQVS [Derivative 408I-419, IVRYTKKVPQVS]” it was 2480 nM.
With “IVRYTKKVPQCS [408I-419 V418C, IVRYTKKVPQCS]” the figure was 3690 nM.
In the case of “LVRYTKKVPQVSTPT [Derivative 408-422, LVRYTKKVPQVSTPT]” it was 13400 nM.
As for IVRYSKKVPQC [408I-418 SC, IVRYSKKVPQC], inhibition was half-maximal at 2940 nM (IC50). This IC50 is about 4.6-fold lower than that of the compound before.
As to “IVRFTKKVPQVS [408I-419 Y411F, IVRFTKKVPQVS]”, the IC50 was 3890 nM.
With “IVRWCKKVPQVS [408I-419 WC03, IVRWCKKVPQVS]” the figure was 1820 nM.
Take `CC[C@H](C)[C@H](N)C(=O)N[C@H](C(=O)N[C@@H](CCCNC(=N)N)C(=O)N[C@@H](Cc1c[nH]c2ccccc12)C(=O)N[C@H](C(=O)N[C@@H](CSSC[C@H](NC(=O)[C@@H](NC(=O)[C@H](Cc1c[nH]c2ccccc12)NC(=O)[C@H](CCCNC(=N)N)NC(=O)[C@@H](NC(=O)[C@@H](N)[C@@H](C)CC)C(C)C)[C@@H](C)O)C(=O)N[C@@H](CCCCN)C(=O)N[C@H](C(=O)N1CCC[C@H]1C(=O)N[C@@H](CCC(N)=O)C(=O)N[C@H](C(=O)N[C@@H](CO)C(=O)O)C(C)C)C(C)C)C(=O)N[C@@H](CCCCN)C(=O)N[C@H](C(=O)N1CCC[C@H]1C(=O)N[C@@H](CCC(N)=O)C(=O)N[C@H](C(=O)N[C@@H](CO)C(=O)O)C(C)C)C(C)C)[C@@H](C)O)C(C)C` [408I-419 WC02 x2, (IVRWTCKVPQVS)2] (I: H-IVRWTCKVPQVS-OH / II: H-IVRWTCKVPQVS-OH; disulfide I:6-II:6; N-terminus and C-terminus assumed): inhibition was half-maximal at 320 nM (IC50).
“IVRYSKKVPQVS [408I-419 T412S, IVRYSKKVPQVS]” had an IC50 of 2090 nM.
Take “IVKYTKKVPQVS [408I-419 R410K, IVKYTKKVPQVS]”: the IC50 was more than 100000 nM.
As to “IVRWTCKVPQVS [408I-419 WCO2, IVRWTCKVPQVS]”, half-maximal inhibition (IC50) was put at 2100 nM.
Take `CC[C@H](C)[C@H](N)C(=O)N[C@H](C(=O)N[C@@H](CCCNC(=N)N)C(=O)N[C@@H](Cc1ccc(O)cc1)C(=O)N[C@H](C(=O)N[C@@H](CCCCN)C(=O)N[C@@H](CCCCN)C(=O)N[C@H](C(=O)N1CCC[C@H]1C(=O)N[C@@H](CCC(N)=O)C(=O)N[C@@H](CSSC[C@H](NC(=O)[C@H](CCC(N)=O)NC(=O)[C@@H]1CCCN1C(=O)[C@@H](NC(=O)[C@H](CCCCN)NC(=O)[C@H](CCCCN)NC(=O)[C@@H](NC(=O)[C@H](Cc1ccc(O)cc1)NC(=O)[C@H](CCCNC(=N)N)NC(=O)[C@@H](NC(=O)[C@@H](N)[C@@H](C)CC)C(C)C)[C@@H](C)O)C(C)C)C(=O)N[C@@H](CO)C(=O)O)C(=O)N[C@@H](CO)C(=O)O)C(C)C)[C@@H](C)O)C(C)C` [408I-419 V418C x2, (IVRYTKKVPQCS)2] (I: H-IVRYTKKVPQCS-OH / II: H-IVRYTKKVPQCS-OH; disulfide I:11-II:11; N-terminus and C-terminus assumed): the 50% inhibitory concentration (IC50) came out at 460 nM. Against the preceding compound, the IC50 is about 4.6-fold lower.
In the case of LARYTKKV [408-415-V409A, LARYTKKV] it was 32900 nM; in that of “LVRYTKKVPQ [Derivative 408-417, LVRYTKKVPQ]”, 19800 nM.
In turn, `CC[C@H](C)[C@H](N)C(=O)N[C@H](C(=O)N[C@@H](CCCNC(=N)N)C(=O)N[C@@H](Cc1c[nH]c2ccccc12)C(=O)N[C@@H](CSSC[C@H](NC(=O)[C@H](Cc1c[nH]c2ccccc12)NC(=O)[C@H](CCCNC(=N)N)NC(=O)[C@@H](NC(=O)[C@@H](N)[C@@H](C)CC)C(C)C)C(=O)N[C@@H](CCCCN)C(=O)N[C@@H](CCCCN)C(=O)N[C@H](C(=O)N1CCC[C@H]1C(=O)N[C@@H](CCC(N)=O)C(=O)N[C@H](C(=O)N[C@@H](CO)C(=O)O)C(C)C)C(C)C)C(=O)N[C@@H](CCCCN)C(=O)N[C@@H](CCCCN)C(=O)N[C@H](C(=O)N1CCC[C@H]1C(=O)N[C@@H](CCC(N)=O)C(=O)N[C@H](C(=O)N[C@@H](CO)C(=O)O)C(C)C)C(C)C)C(C)C` [408I-419 WC03 x2, (IVRWCKKVPQVS)2] (I: H-IVRWCKKVPQVS-OH / II: H-IVRWCKKVPQVS-OH; disulfide I:5-II:5; N-terminus and C-terminus assumed) displayed an IC50 of 600 nM. Against the preceding compound, the IC50 is about 33-fold lower.
LVRYTKKV [Derivative 408-415, LVRYTKKV]: it took 25700 nM to reach half-maximal inhibition (IC50).
As for `CC[C@H](C)[C@H](N)C(=O)N[C@H](C(=O)N[C@@H](CCCNC(=N)N)C(=O)N[C@@H](Cc1c[nH]c2ccccc12)C(=O)N[C@@H](CO)C(=O)N[C@@H](CCCCN)C(=O)N[C@@H](CCCCN)C(=O)N[C@H](C(=O)N1CCC[C@H]1C(=O)N[C@@H](CSSC[C@H](NC(=O)[C@@H]1CCCN1C(=O)[C@@H](NC(=O)[C@H](CCCCN)NC(=O)[C@H](CCCCN)NC(=O)[C@H](CO)NC(=O)[C@H](Cc1c[nH]c2ccccc12)NC(=O)[C@H](CCCNC(=N)N)NC(=O)[C@@H](NC(=O)[C@@H](N)[C@@H](C)CC)C(C)C)C(C)C)C(=O)N[C@H](C(=O)N[C@@H](CO)C(=O)O)C(C)C)C(=O)N[C@H](C(=O)N[C@@H](CO)C(=O)O)C(C)C)C(C)C)C(C)C` [408I-419 WSC02 x2, (IVRWSKKVPCVS)2] (I: H-IVRWSKKVPCVS-OH / II: H-IVRWSKKVPCVS-OH; disulfide I:10-II:10), the IC50 was 120 nM.
With “IVRSTKKVPQVS [408I-419 Y411S, IVRSTKKVPQVS]” the figure was more than 100000 nM; with “LVRYTKKVPQVS [Derivative 408-419, LVRYTKKVPQVS]”, 5490 nM.
